Results: article PMC9866866, “Antiviral Activity of Benzoheterocyclic Compounds from Soil-Derived Streptomyces jiujiangensis NBERC-24992” (Molecules, 2023)
Converted amounts (≈) assume the structure as drawn.

How the values were obtained:
PRV [1] = experiment: microbe, parasite or virus in culture; type: cell-based, Pseudorabies virus; details: for EC50: Suid alphaherpesvirus 1, Vero, 48 h, read-out: Antiviral Activity EC50
Vero cells = details: for Cytotoxicity IC50 (CC50): African green monkey
PRV [2] = type: cell-based, Pseudorabies virus
PRV [3] = type: cell-based, Pseudorabies virus; remark: listed apart in the source
[4] = tested on: various RNA and DNA viruses; details: cited from earlier work
in vitro = details: African green monkey
several viruses = details: cited from earlier work

Compound	EC50 (PRV [1]) [µg/mL]	Cytotoxicity IC50 (CC50) (Vero cells) [µg/mL]	further results
COC[C@@]1(CCC(C)=C(C)C)Nc2ccc(C(=O)O)cc2C[C@H]1OC(C)=O [Compound 6, A-503451 D acetylate]	> 20	>20	
COCC(O)(CCC(C)=C(C)C)C1Cc2cc(C(=O)O)ccc2N1 (stereo not drawn) [Compound 8, A-503451 B]	> 20	>20	
COCC1(CCC(C)=C(C)C)Nc2ccc(C(=O)O)cc2CC1Cl (stereo not drawn) [Compound 4, virantmycin]	< 0.31	>20	cells alive (protection of Vero cells against PRV) (PRV [1]): more than 50%; virus infection in PRV-infected cells (indirect immunofluorescence) (PRV [2]): significantly reduced; PRV proliferation (qPCR, PRV gE) (PRV [3]): inhibits PRV proliferation in a dose–dependent manner; toxic effect on the tested cells (Vero cells): does not show any toxic effect; antiviral activity against various RNA and DNA viruses [4]: significant antiviral activity
COC[C@@]1(CCC(CO)=C(C)C)Nc2ccc(C(=O)O)cc2C[C@H]1Cl [Compound 3, Virantmycin F]	1.74 ± 0.25 (≈ 4.73 µM)	>20	viability (in vitro): 80%
COCC(O)(CCC1(C)OC1(C)C)C1Cc2cc(C(=O)O)ccc2N1 (stereo not drawn) [Compound 2, Virantmycin E]	> 20	>20	
COCC12CCC(C)(O)C(C)(C)C1Cc1cc(C(=O)O)ccc1N2 (stereo not drawn) [Compound 1, Virantmycin D]	> 20	>20	
COC[C@@](Cl)(CCC(C)=C(C)C)[C@@H]1Cc2cc(C(=O)O)ccc2N1 [Compound 7, A-503451 A]	6.46 ± 1.38 (≈ 18.4 µM)		
Nc1nc2c(ncn2COCCO)c(=O)[nH]1 [Acyclovir, reference compound]	2.96 ± 1.48 (≈ 13.1 µM)	>20	
COC[C@@]1(CCC(C)=C(C)C)Nc2ccc(C(N)=O)cc2C[C@H]1Cl [Benzastatin C]			antiviral activity against several viruses (several viruses): specific activities against several viruses
NC(=O)c1ncn([C@@H]2O[C@H](CO)[C@@H](O)[C@H]2O)n1 [Ribavirin, reference compound]	4.44 ± 1.53 (≈ 18.2 µM)	>20	
COC[C@@]1(CCC(C)=C(C)C)Nc2ccc(C(N)=O)cc2C[C@H]1O [benzastatin D]			antiviral activity against several viruses (several viruses): inactive
COC[C@@]1(CCC(C)=C(C)C)Nc2ccc(C(=O)O)cc2C[C@H]1O [Compound 5, A-503451 D]	> 20	>20	
